Entries after “also recorded” stand apart in the source; their conditions may differ. Read-outs that look alike come from different tables or passages of the source.
How the values were obtained:
[1] = PFOA in plasma over time after inhalation or gavage of PFOA-coated house dust; type: in vivo, rat; details: for Cmax: male, RccHan:WIST, rat, plasma
[2] = PFOA in terminal plasma, lung lavage and tissues 48 h after dust exposure; type: in vivo, rat; details: for Kp at 48 h / concentration at 48 h: male, RccHan:WIST, rat
[3] = Extractable organofluorine (EOF) and fluorine mass balance in plasma and tissues at 48 h; type: in vivo, rat; details: for concentration at 48 h: male, RccHan:WIST, rat, read-out: PFOA-fluorine equivalent
Procedure: Plasma and tissue samples taken at 48 h after exposure were subjected to EOF analysis. Extraction procedure followed the procedure described above with the exception that no mass labelled internal standards were spiked to the samples before extraction. The EOF content of the 1 mL extract was analyzed by combustion ion chromatography (CIC). Part of the extract (200 μL) was transferred to a LC vial with the addition of 10 μL of mass-labelled standards; after that, aqueous ammonium acetate (2 mM, 300 μL) was added to the vial for PFAS analysis using LC-MS/MS. The reported EOF concentrations as well as the concentration of PFOA for mass balance analysis were not recovery-corrected.
Levels of EOF in the sample extracts were determined with a combustion ion chromatography (CIC) system consisting of a combustion module (Analytik Jena, Germany), a 920 Absorber Module and a 930 Compact IC Flex ion chromatograph module (both from Metrohm, Switzerland). An ion exchange column (Metrosep A Supp 5–150/4.0), with carbonate buffer (64 mmol/L sodium carbonate and 20 mmol/L sodium bicarbonate) as the mobile phase, was used for the separation of anions; the absorber solution was water. The sample extract (100 μL) was set on a silica boat via an autosampler and placed into a furnace at 900–1000 °C. The combustion of the sample in the furnace converted organic fluorine and inorganic fluorine into hydrogen fluoride (HF), which was then trapped by MilliQ water. The fluoride concentration in the solution was analyzed using ion chromatography. […] Quantification was based on external calibration. The analytical conditions for ion chromatography have been reported elsewhere (Kärrman et al. [2021]).
The measured PFOA concentration (ng/mL) in the sample extract of the EOF analysis was converted to the corresponding fluoride-equivalent concentration (ng/mL F) using the following formula:1 CFPFAS=CPFAS*NF*AF/MWPFAS where CPFAS is the concentration of the target compound (i.e., PFOA), NF is the number of fluorine atoms in the target compound (i.e., 15), AF is the atomic weight of fluorine (g/mol, i.e., 19), and MWPFAS is the molecular weight of the target compound (i.e., 413). The sum of known extractable fluorine concentration (ΣCF_PFAS) was calculated by summing the fluorine concentrations from all individual PFASs. Values below limits of quantification (LOQ) were set for calculating ΣCF_PFAS. Levels of unidentified organofluorine were calculated by subtracting […], which in this present study only PFOA.

[4] = design: method as in Hinderliter et al. [2006]; details: ref Hinderliter et al. [2006], cited from earlier work
[5] = cited from earlier work
[6] = design: method as in Li et al. [2017]; details: humans, calculated; ref Li et al. [2017]; cited from earlier work
[7] = design: method as in Li et al. [2017]; details: rats; ref Li et al. [2017]; cited from earlier work
[8] = design: method as in Iwabuchi et al. [2017]; details: oral 100 μg/kg bw, male rats, ref Iwabuchi et al. [2017], cited from earlier work

## O=C(O)C(F)(F)C(F)(F)C(F)(F)C(F)(F)C(F)(F)C(F)(F)C(F)(F)F [PFOA, Perfluorooctanoic acid]
[1]; inhaled or intranasal, inhalation group, n = 4, 164 μg PFOA/kg BW
  Cmax: 3100 ± 320 ng/mL
[1]; oral gavage group, n = 4, 364 μg PFOA/kg BW
  Cmax: 1730 ± 170 ng/mL
[1]; oral gavage group
  Time of Cmax post exposure: 3 h
[1]; same deposition level of exposure
  Plasma PFOA (Cmax, 3 h) following inhalation compared to oral exposure: almost four times higher; also recorded: approximately four times higher
[2]; 48 h, inhalation
  Liver:plasma ratio of PFOA concentration: 5.28 ± 1.3
[2]; 48 h, oral gavage
  Kidney:plasma ratio of PFOA concentration: 1.72 ± 0.3
  Liver:plasma ratio of PFOA concentration: 4.89 ± 1.0
[2]; 48 h post exposure
  Levels of PFOA in plasma, liver and kidney, inhalation compared to oral: twice as high
[2]; kidney, 48 h, inhalation
  PFOA concentration: 3.84 ± 0.8 µg/g
[2]; kidney, 48 h, oral gavage
  PFOA concentration: 3.15 ± 0.2 µg/g
[2]; liver, 48 h, inhalation
  PFOA concentration: 10.1 ± 0.9 µg/g
[2]; liver, 48 h, oral gavage
  PFOA concentration: 8.94 ± 0.5 µg/g
[2]; lung, 48 h, inhalation
  PFOA concentration: 31.3 ± 4.0 µg/g
[2]; lung, 48 h, oral gavage
  PFOA concentration: 1.68 ± 0.3 µg/g
[2]; kidney, 364 μg PFOA/kg BW, 48 h, oral gavage, read-out: Kidney:plasma ratio of PFOA concentration
  Kp at 48 h: 1.72
[2]; kidney, inhaled, 164 μg PFOA/kg BW, kidney, 48 h, inhalation
  concentration at 48 h: 3840 ± 760 ng/g
[2]; kidney, inhaled, 164 μg PFOA/kg BW, 48 h, inhalation, read-out: Kidney:plasma ratio of PFOA concentration
  Kp at 48 h: 2.02 ± 0.7
[2]; kidney, po, 364 μg PFOA/kg BW, kidney, 48 h, oral gavage
  concentration at 48 h: 3150 ± 190 ng/g
[2]; liver, 364 μg PFOA/kg BW, 48 h, oral gavage, read-out: Liver:plasma ratio of PFOA concentration
  Kp at 48 h: 4.89
[2]; liver, inhaled, 164 μg PFOA/kg BW, liver, 48 h, inhalation
  concentration at 48 h: 10100 ± 880 ng/g
[2]; liver, inhaled, 164 μg PFOA/kg BW, 48 h, inhalation, read-out: Liver:plasma ratio of PFOA concentration
  Kp at 48 h: 5.28
[2]; liver, po, 364 μg PFOA/kg BW, liver, 48 h, oral gavage
  concentration at 48 h: 8940 ± 500 ng/g
[2]; lung lavage (BALF), inhaled, 164 μg PFOA/kg BW, lung lavage, 48 h, inhalation
  concentration at 48 h: 9980 ± 630 ng/mL
[2]; lung lavage (BALF), po, 364 μg PFOA/kg BW, lung lavage, 48 h, oral gavage
  concentration at 48 h: 310 ± 20 ng/mL
[2]; lung, inhaled, 164 μg PFOA/kg BW, lung, 48 h, inhalation
  concentration at 48 h: 31300 ± 4000 ng/g
[2]; lung, po, 364 μg PFOA/kg BW, lung, 48 h, oral gavage
  concentration at 48 h: 1680 ± 310 ng/g
[2]; plasma, inhaled, 164 μg PFOA/kg BW, terminal plasma, 48 h, inhalation of PFOA-coated dust (164 μg PFOA/kg BW)
  concentration at 48 h: 2030 ± 320 ng/mL
[2]; plasma, po, 364 μg PFOA/kg BW, terminal plasma, 48 h, oral gavage of PFOA-coated dust (364 μg PFOA/kg BW)
  concentration at 48 h: 1870 ± 350 ng/mL
[2]; post exposure
  Distribution of PFOA to liver and kidney, inhalation compared to oral gavage: ~2.5 times
[2]; terminal plasma, 48 h, inhalation of PFOA-coated dust (164 μg PFOA/kg BW)
  PFOA concentration: 1.97 ± 0.32 ng/µL
[3]; both exposure groups
  Proportion of PFOA to EOF in plasma: 65–71%
[3]; kidney, inhalation
  Contribution to EOF (%): 81%
[3]; kidney, oral
  Contribution to EOF (%): 83%
[3]; liver, inhalation
  Contribution to EOF (%): 87%
[3]; liver, oral
  Contribution to EOF (%): 83%
[3]; lung lavage, inhalation
  Contribution to EOF (%): 76%
[3]; lung lavage, oral
  Contribution to EOF (%): 84%
[3]; lung, inhalation
  Contribution to EOF (%): 86%
[3]; lung, oral
  Contribution to EOF (%): 74%
[3]; 364 μg PFOA/kg BW, kidney, oral
  concentration at 48 h: 2160 ± 130 ng/g
[3]; 364 μg PFOA/kg BW, liver, oral
  concentration at 48 h: 6140 ± 340 ng/g
[3]; 364 μg PFOA/kg BW, lung, oral
  concentration at 48 h: 1160 ± 210 ng/g
[3]; 364 μg PFOA/kg BW, plasma, oral, not recovery-corrected
  concentration at 48 h: 1420 ± 240 ng/mL
[3]; inhaled, 164 μg PFOA/kg BW, kidney, inhalation
  concentration at 48 h: 2640 ± 530 ng/g
[3]; inhaled, 164 μg PFOA/kg BW, liver, inhalation
  concentration at 48 h: 6950 ± 650 ng/g
[3]; inhaled, 164 μg PFOA/kg BW, lung, inhalation
  concentration at 48 h: 21500 ± 2750 ng/g
[3]; inhaled, 164 μg PFOA/kg BW, plasma, inhalation, not recovery-corrected
  concentration at 48 h: 1530 ± 170 ng/mL
[3]; lung lavage (BALF), 364 μg PFOA/kg BW, lung lavage, oral
  concentration at 48 h: 210 ± 20 ng/mL
[3]; lung lavage (BALF), inhaled, 164 μg PFOA/kg BW, lung lavage, inhalation
  concentration at 48 h: 6870 ± 430 ng/mL
[3]; plasma and tissues
  Share of EOF levels explained by measured PFOA, all samples: 65–87%
[3]; plasma, oral
  Contribution to EOF (%): 65%
[4]; 6-h inhalation exposure, 1–25 mg/m^3 aerosolized solution
  Concentration of PFOA in plasma: 1000 to 25000 ng/mL
[4]; end of the 6-h exposure time
  Plasma level in male compared to females: almost twice as high
[5]; oral exposure in animal studies, ammonium salt: APFO, ref DeWitt. [2015]
  Absorption over the gastrointestinal tract: virtually all of it was absorbed
[5]; oral exposure, ref US EPA [2016], Pizzurro et al. [2019], DeWitt. [2015]
  Delivered dose absorbed over the gastro intestinal: more than 90%
[6]
  Half-time: 2.3–8.5 years
[7]
  Half-time: a few days
[8]; at Cmax (12 h)
  Liver to serum ratio: 1.67
[8]
  Kidney to serum ratio: 0.82

Reference: paper PMC9587079, “Bioavailability of inhaled or ingested PFOA adsorbed to house dust” (Environmental Science and Pollution Research International, 2022)
